Measurements taken from patent US7718613B2, “Armed peptides” (priority 2001, dated 2010).
The star is where a group is joined. Biotin = O=C1N[C@H]2[C@H](CS[C@H]2CCCCC(=O)*)N1; Myristoyl = CCCCCCCCCCCCCC(=O)*

Tests used:
[1] = Cytolytic activity of pH-responsive peptides on calcein liposomes at different pH; settings: liposomes 4 μM lipid; 14 nM peptide 2, 20 nM peptide 7, 45 nM peptide 9; FIG. 4
Description: Liposomes encapsulating calcein dye were prepared by an extrusion method (Biochim. Biophys. Acta, 812 (1985) 55). Phophatidylcholine (50 mg) and cholesterol (13.08 mg) which had been dissolved in 4 ml of 50% v/v chloroform methanol solution were evaporated to form a lipid film in a round bottom flask. If it is essential to follow the fate of liposomes a lipohilic-dye such as DiI (50 μg) could be incorporated into the lipid film prior to hydration. The film was then hydrated with 4 ml of 120 mM calcein solution prepared in 10 mM sodium phosphate 20 mM Sodium chloride buffer pH 7.4. Liposomes were formed by 10 extrusion cycles through 0.2 micron or 0.1 um polycarbonate filters using the Liposofast 100 (Avestin) extruder device. The non encapsulated dye was removed by gel filtration on a PD-10 column using iso-osmotic buffer. The total lipid concentration of the liposomes was measured by the Stewart assay and adjusted to 3 mg per ml.
The cytolytic activity of pH-responsive peptides was followed by adding 2 or 3 μl of liposomes to a 2 ml assay volume and continually recording fluorescence. Buffers were made of 10 mM Na phosphate, 140 mM NaCl, 1 mM EDTA, 5 mM HEPES at several different pH values. […] In the experiments 2 ml of 10 mM Na phosphate, 140 mM NaCl, 1 mM EDTA, 5 mM HEPES buffer (at pH values indicated on the figure) containing liposomes (4 μM lipid) and (A) 14 nM peptide 2, (B) 20 nM peptide 7 (C) 45 nM peptide 9. In all cases peptides were added indicated by sharp dip in fluorescence were used. The pH values are as indicated for each trace. […] In general, it is well documented that many proteins including receptors, enzymes and antibodies has pH optimum usually closer to physiological value. On either side of the pH optimum the binding activity is reduced. However in general as activity profile is typically bell shape most proteins would tolerate at least a pH unit shift from optimum. Obviously the closer the results are to pH 7.4 the higher chances their are for efficient binding with target proteins or receptors.

[2] = Detection of biotin by pH arming (avidin cloaking, calcein liposomes)
From the text: The modified peptide retained its activity and pH responsive properties upon modification with biotin. […] In FIG. 2, the curves from top to bottom represent (i) Peptide at pH 6.6, (ii) Peptide at pH 8 and (iii) background signal in the absence of any peptide. In FIG. 2A, the curves from top to bottom represent peptide in the presence of (i) 11 piccolos of biotin and 1,2 fold excess avidin at pH 6.6, (ii) 1.2 fold excess avidin at pH 6.6, (iii) 11 piccolos of biotin and 1.2 fold avidin at pH 8 and (iv) 1.2 fold excess avidin at pH 8.
The biotin assay using pH sensitive peptide was repeated in a glass vial which could be illuminated with a small torch or blue LED light source. Specifically, the vials contained 1.2 ml of biotinylated hybrid peptide (17 nM) in PBS buffer pH 6.2 containing calcein liposomes ([…]) and 1.2 fold excess avidin. Biotin was present in vials 3 to 6 in increasing concentration. Vials are as follows: (1) Background sample containing liposomes only, (2) no biotin, (3) 12 pmoles biotin, (4) 15 pmoles biotin, (5) 17 pmoles biotin, (6) 50 pmoles Samples were illuminated by simple 3 mm blue diodes from underneath the cuvettes. Photographs in the order top to bottom, were taken at indicated times from addition of liposomes. The actual fluorescence readings taken on a fluorimeter at five minute period are also shown graphically. Five minutes after the addition of all reagents the fluorescence became clearly visible to the naked eye compared to the background which remained low and constant allowing detection of 12 picomole of biotin rapidly without any instrumentation. (FIG. 3). However, instrumentation available in most laboratories (e.g., fluorescence, absorption, luminescence, electrochemical, biosensors), can also be used for quantitative analysis by changing the signal development molecules incorporated into the liposomes.
Peptides were prepared at concentrations ranging from 1 to 0.01 mg/ml, depending on the activity of peptide, in deionised. A stock solution of avidin (5 unit per ml, one unit of avidin binds 1 μg of biotin.) was prepared in PBS pH 7.4 buffer. Biotin, from a stock solution of 10 mg/ml prepared in DMSO, was diluted 10000 fold with water to obtain working concentrations of 1 μg/ml. A typical cytolytic assay was performed in a total volume of 2 ml PBS buffer containing calcein liposomes (5 μM lipid) as prepared above. The progress of dye leakage was continually followed using excitation and emission wavelengths of 490 and 520 nm respectively. Peptide of known concentrations-was added at certain time points and the solution was rapidly mixed while continuing to measure signal. For uncloaking the peptide activity using biotin, the additions were made to the buffer sequentially in the order avidin, 2 minute incubation with biotin followed by the addition of biotinylated peptide (44 nM). The mixture was incubated for filter 2 minutes and fluorescence measurement initiated. At selected time points liposomes (7 μM) were added and solution mixed. For the cloaking experiments the additions were essentially the same except no free biotin was added. The avidin concentration was a 1.2 fold excess units to ensure complete cloaking. For evaluating dual trigger switching properties of biotinylated peptide the liposomes (7 μM lipid) in 2 ml of buffer were treated with peptide. (2.8 nM) and fluorescence measured continually. For cloaking experiments and pH arming the peptide solution (2.8 nM) was incubated with a 1.2 fold excess of avidin solution for 3 minutes and the cytolytic assay performed at pH 6.6 and 8. For the uncloaking experiments the avidin was pre-incubated with 11 picomoles of biotin solution.
In the control sample, liposomes (4 μM lipid) were added to 1.2 ml solution of peptide (14 nM) pre-incubated with a 1.2 fold excess avidin. Test samples contained biotin at known concentrations. […]

[3] = Liposome-peptide integral complex: pH-triggered calcein release and stability; settings: complex tested 40 minutes from preparation; FIG. 9
From the text: A fatty acid incorporated on the N-terminal of peptide anchors the sequence with liposomes to form integral complex which can then be used as single stable reagent that can be triggered to release the contents-of the liposomoes when the pH is ideal (i.e physiological 7.4) or acidic (e.g 6.2). In the first instance we prepared the liposome-peptide complex at a predetermined ratio of lipid-to peptide (30:1) in pH 8 buffer using peptide 10. […] The complex between liposomes and peptide was formed by adding peptide to […] of 10 mM NaP containing 140 mM NaCl, 1 mM EDTA, 5 mM Hepes pH 8 buffer, containing 100 μl of calcein encapsulating liposomes. The mixture was incubated for 20 mins to form the complex prior to use. In order to ascertain that the lysis is occurring due to the formation of complex and not as the action of the peptide per se it was essential to purify the liposome-peptide complex. The peptide to lipid ratio in this complex is 1:30. The complex was applied to a Sepharose CL-6B column. Fractions corresponding to liposomes were collected as clearly visible to the eye. Aliquots of these fractions were then tested for lytic activity at acidic and physiological pH values. The key aim was to establish that the peptide is liposome associated and would thus be eluted with liposome fraction in the void volume. We used 100 μl complex (a column purified fraction) and followed the release of Calcein at two different pH values.
FIG. 8A. […] Upper curve pH 5.8. Lower curve pH 7.4.
2 ml buffer (10 mM Na phosphate, 140 mM NaCl, 1 mM EDTA, 5 mM HEPES)+50 μl purified complex. Lipsomes used were 50 nm extruded. Curves top to bottom are pH 6.2, 6.4, 6.7, 7.0, 7.4
Complex 20 μl liposomes+60 μl pH 8 buffer+20 μl peptide (0.1 mg/ml) prepared and used within 2 minutes. 10 μl was added to each of the cuvettes containing 2 ml buffers. Top curve pH 6.2 (triton was added towards the end indicated by sharp dip in fluorescence to check full lysis), the lower curve is at pH 7.4. Samples measured simultaneously.
5 μL of complex in 2 ml of buffer tested 20 minutes after preparation. Upper curve pH 6.2, Lower curve pH 7.4.
5 μL of complex in 2 ml of buffer tested 5 hrs after preparation. Upper curve pH 6.2 and lower curve pH 7.4.
5 μL of complex in 2 ml of buffer tested 24 hrs after preparation curve pH 6.2, Lower curve pH 7.4.

Rif-1 allografts = test: In vivo imaging of calcein release, dorsal window chamber with implanted tumours; set-up: species or system mice; settings: for calcein fluorescence in tumour after armed complex relative to control liposomes: 100 μl complex via tail vein, untreated (No MIBG/glucose) mice, FIG. 10
Description: Similar methodology could be used for in vivo imaging of tumours whereby the payload is a marker or diagnostic reagent sequestered inside liposomes. For instance, when using the dye calcein, the pH released dye would be detected by increase in green fluorescence. […] Complex was prepared from biotinylated peptide (1) by adding 10 μl of pH 8 buffer to 41 μg of peptide to which was added 150 μl of Hposomes encapsulating calcein. The complex was incubated briefly and 100 μl was injected via the tail vein into mice with implanted tumours. The control mice were given equivalent levels of untreated liposomes. Using the dorsal window chamber model (Biophysics. 1997,1785-1790 & Nature Biotechnology 1999,17,1033-1035,) with implanted tumours (Rif-1 allografts) direct in vivo examination of the calcein in and around the tumours was made by fluorescence microscopy and computer controlled time-lapse images. […] Note that many tumours in animals and human, Rif-1 being one example, have an ambient pH that is slightly lower than that of normal tissue (Science 1980, 210,1253-1255 & Cancer Res 1989,4373-4384). This pathophysiological feature of tumours may be used for cancer detection. Thus unarming the complex which triggers below but close to physiological pH causes the release of dye almost immediately. This way the armed complexes can be used for in vivo detection of disease and particularly for the detection of cancer. Similarly, if the payload was combination of calcein dye and anticancer drug it would be possible to detect and treat with same formulation offering major advantages for diagnosis and treatment.

Substance | pH of triggering (pH profile of calcein release from liposomes) [1] [pH] | cloaking of the complex by avidin binding ([2]; 1.2 fold excess avidin) | release in the presence of analyte (biotin) and avidin at acidic pH ([2]; biotin, 1.2 fold excess avidin, pH 6.6) | release in the presence of analyte (biotin) and avidin at pH 8 ([2]; biotin, 1.2 fold excess avidin, pH 8) | amount of biotin detected by naked eye ([2]; glass vial, blue LED, five minutes, PBS pH 6.2, 1.2 fold excess avidin) [picomole] | activity of peptide-liposome complex at acidic pH ([2]; pH 6.6, FIG. 2) | activity of peptide-liposome complex at alkaline pH ([2]; pH 8, FIG. 2) | triggering of complex [3] | calcein fluorescence in tumour after armed complex relative to control liposomes (Rif-1 allografts) | calcein fluorescence in tumour after armed complex relative to control liposomes (Rif-1 allografts; listed as biotinylated peptide (1)) | triggering pH relative to another peptide (Rif-1 allografts; mouse, in vivo)
Myr-EAALAEALAEALAEGKPALISWIRRRLQQ-amide (Myristoyl-EAALAEALAEALAEGKPALISWIRRRLQQ-NH2; SMILES CCCCCCCCCCCCCC(=O)N[C@@H](CCC(=O)O)C(=O)N[C@@H](C)C(=O)N[C@@H](C)C(=O)N[C@@H](CC(C)C)C(=O)N[C@@H](C)C(=O)N[C@@H](CCC(=O)O)C(=O)N[C@@H](C)C(=O)N[C@@H](CC(C)C)C(=O)N[C@@H](C)C(=O)N[C@@H](CCC(=O)O)C(=O)N[C@@H](C)C(=O)N[C@@H](CC(C)C)C(=O)N[C@@H](C)C(=O)N[C@@H](CCC(=O)O)C(=O)NCC(=O)N[C@@H](CCCCN)C(=O)N1CCC[C@H]1C(=O)N[C@@H](C)C(=O)N[C@@H](CC(C)C)C(=O)N[C@H](C(=O)N[C@@H](CO)C(=O)N[C@@H](Cc1c[nH]c2ccccc12)C(=O)N[C@H](C(=O)N[C@@H](CCCNC(=N)N)C(=O)N[C@@H](CCCNC(=N)N)C(=O)N[C@@H](CCCNC(=N)N)C(=O)N[C@@H](CC(C)C)C(=O)N[C@@H](CCC(N)=O)C(=O)N[C@@H](CCC(N)=O)C(N)=O)[C@@H](C)CC)[C@@H](C)CC) [peptide 2] | ~7 | – | – | – | – | – | – | – | – | – | –
Myr-GIGAVLRVLTTG(TLLEFLLEELLEFL)KPALISWIRRRQQ-Amide [peptide 7] | ~7 | – | – | – | – | – | – | – | – | – | –
Myristoyl-EAALAEALAEALAEGK(Biotin)PALISWIRRRLQQ-NH2 [peptide 1] | – | efficiently cloaked | triggered | only slight release | 12 | active | inactive | trigger in acidic media | significant release of payload | intense image | closer to physiological pH than peptide 9
